Assay results from patent publication US9839642B2, “Beta-tetrazolyl-propionic acids as metallo-beta-lactamase inhibitors” (priority 2014, dated 2017).
Read-outs that look alike come from different tables or passages of the source.

Legend:
[1] = system: Escherichia coli expressing NDM-1 (CLB30016); assay: Antibiotic potentiation activity: synergistic concentration (MITC95) with imipenem, growth by OD600; format: cell-based
In short: (§1)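 MITC95 = lowest inhibitor concentration giving 95% growth inhibition, read by absorbance after 22–24 h at 35° C. Compound range 200 μM to 0.195 μM, imipenem fixed at 1 or 4 μg/ml, bacteria in 1.1×CAMHB from saline suspension diluted 1:100.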

[2] = system: Klebsiella pneumoniae expressing VIM-1 (IHMA599644); assay: as above; format: cell-based
In short: as §1

[3] = system: Serratia marcescens expressing IMP-1 (CL5741); assay: as above; format: cell-based
In short: as §1

IMP-1 = IMP-1 (Serratia marcescens, UniProt P52699); assay: Enzyme activity: determination of IC50, fluorescence assay with CCF2-FA substrate; format: biochemical; conditions: CCF2-FA 1.25 μM, 2 hours at 25° C., read-out: IMP1 IC50
Chain of IMP-1 (P52699 19-246, looked up, species assumed): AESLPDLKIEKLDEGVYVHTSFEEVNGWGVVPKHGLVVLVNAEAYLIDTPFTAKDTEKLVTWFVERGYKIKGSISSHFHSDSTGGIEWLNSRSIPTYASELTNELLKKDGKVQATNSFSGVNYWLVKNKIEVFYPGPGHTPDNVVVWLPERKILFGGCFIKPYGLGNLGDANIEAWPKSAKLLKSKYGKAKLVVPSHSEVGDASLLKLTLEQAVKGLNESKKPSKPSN
In short: (§2)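 In pH 7 phosphate buffer (100 mM) with 10 μM ZnSO4 and 0.005% Tween-20, CCF2-FA substrate (1.25 μM final) was hydrolysed for 2 h at 25 °C by NDM-1, IMP-1 or VIM-1 at 1, 2 or 30 pM in the presence of inhibitor at 20–0.00063 μM. Emission 460 nm/excitation 405 nm; 4-parameter curve fit gave IC50.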

NDM-1 = NDM-1 (Klebsiella pneumoniae, UniProt C7C422); assay: as above; format: biochemical; conditions: CCF2-FA 1.25 μM, 2 hours at 25° C., read-out: NDM1 IC50
Chain of NDM-1 (C7C422 29-270, looked up, species assumed): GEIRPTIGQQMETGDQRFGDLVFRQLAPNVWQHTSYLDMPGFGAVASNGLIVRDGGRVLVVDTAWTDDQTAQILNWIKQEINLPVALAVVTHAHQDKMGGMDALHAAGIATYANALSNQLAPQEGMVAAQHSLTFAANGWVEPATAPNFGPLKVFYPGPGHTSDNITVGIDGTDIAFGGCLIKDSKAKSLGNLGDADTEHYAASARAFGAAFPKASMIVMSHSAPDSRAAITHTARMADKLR
In short: as §2

VIM-1 = VIM-1 (Pseudomonas aeruginosa, UniProt A0A0F7KYQ8); assay: as above; format: biochemical; conditions: CCF2-FA 1.25 μM, 2 hours at 25° C., read-out: VIM1 IC50
In short: as §2

[4] = E. coli CLB30016 (NDM-1), 95% inhibition of growth
[5] = K. pneumoniae IHMA599644 (VIM-1), 95% inhibition of growth
[6] = S. marcescens CL5741 (IMP-1), 95% inhibition of growth
[7] = 95% inhibition of bacterial growth, strain CLB30016
[8] = 95% inhibition of bacterial growth, strain IHMA599644
[9] = 95% inhibition of bacterial growth, strain CL5741

| Compound | NDM1 EC30016 MITC95 [1, 4] | VIM1 KP599644 MITC95 [2, 5] | IMP1 SM5741 MITC95 [3, 6] | IC50 (IMP-1; IMP-1 enzyme 2 pM) | IC50 (NDM-1; NDM-1 enzyme 1 pM) | IC50 (VIM-1; VIM-1 enzyme 30 pM) | NDM1 EC30016 MITC95 [1, 7] | VIM1 KP599644 MITC95 [2, 8] | IMP1 SM5741 MITC95 [3, 9] | IC50 (IMP-1; enzyme 2 pM) | IC50 (NDM-1; enzyme 1 pM) | IC50 (VIM-1; enzyme 30 pM) |
| --- | --- | --- | --- | --- | --- | --- | --- | --- | --- | --- | --- | --- |
| CCC[C@H](C(=O)O)[C@H](Cc1ccc(C(=O)O)cc1)c1nn[nH]n1 [Example 283, 4-((2S,3S)-3-carboxy-2-(2H-tetrazol-5-yl)hexyl)benzoic acid] | 100 µM | 200 µM | 38 µM | 850 nM | 50 nM | 17 nM | – | – | – | – | – | – |
| CC(C)C[C@H](C(=O)O)[C@H](Cc1ccc(Br)cc1)c1nnn[nH]1 [Example 25, (2S)-2-[(1S)-2-(4-bromophenyl)-1-(1H-tetrazol-5-yl)ethyl]-4-methylpentanoic acid] | – | – | – | – | – | – | 4.7 µM | 12.5 µM | 3.1 µM | 87 nM | 32 nM | 2.6 nM |
| CCC[C@H](C(=O)O)[C@H](Cc1ccccc1-c1ccc(C(N)=O)cc1)c1nn[nH]n1 [Example 394, (2S)-2-[(1S)-2-(4′-carbamoylbiphenyl-2-yl)-1-(2H-tetrazol-5-yl)ethyl]pentanoic acid] | 4.7 µM | 38 µM | 25 µM | 450 nM | 2.2 nM | 3.9 nM | – | – | – | – | – | – |
| CC(C)C[C@H](C(=O)O)[C@H](Cc1ccc(NC2CNCc3ccccc32)nc1)c1nnn[nH]1 (stereo partly drawn) [Example 319, (2S)-4-methyl-2-[(1S)-2-[6-(1,2,3,4-tetrahydroisoquinolin-4-ylamino)pyridin-3-yl]-1-(1H-tetrazol-5-yl)ethyl]pentanoic acid] | 12.5 µM | 25 µM | 18.8 µM | 1000 nM | 350 nM | 13 nM | – | – | – | – | – | – |
| CC(C)[C@H](C(=O)O)[C@H](Cc1ccc(C2=CCNC2)nc1)c1nnn[nH]1 [Example 64, (2S,3S)-4-(6-(2,5-dihydro-1H-pyrrol-3-yl)pyridin-3-yl)-2-isopropyl-3-(1H-tetrazol-5-yl)butanoic acid] | – | – | – | – | – | – | 6.2 µM | 12.5 µM | 50 µM | 12000 nM | 300 nM | 8.4 nM |
| CCC[C@H](C(=O)O)[C@H](Cc1ccc(-c2ccc3c(c2)OCC(=O)N3)cn1)c1nnn[nH]1 [Example 169, (2S)-2-[(1S)-2-[5-(3-oxo-3,4-dihydro-2H-1,4-benzoxazin-7-yl)pyridin-2-yl]-1-(1H-tetrazol-5-yl)ethyl]pentanoic acid] | – | – | – | – | – | – | 18.8 µM | 200 µM | 100 µM | 1600 nM | 88 nM | 38 nM |
| CCC[C@H](C(=O)O)[C@H](Cc1ccc2nonc2c1)c1nnn[nH]1 [Example 273, (2S)-2-[(1S)-2-(2,1,3-benzoxadiazol-5-yl)-1-(1H-tetrazol-5-yl)ethyl]pentanoic acid] | 12.5 µM | 9.4 µM | 150 µM | 2200 nM | 260 nM | 1.9 nM | – | – | – | – | – | – |
| O=C(O)[C@@H](C1CCOC1)[C@H](Cc1ccc(C2CCNC2)cc1)c1nnn[nH]1 (stereo partly drawn) [Example 107, (2R,3S)-4-(4-(pyrrolidin-3-yl)phenyl)-2-(tetrahydrofuran-3-yl)-3-(1H-tetrazol-5-yl)butanoic acid] | – | – | – | – | – | – | 9.4 µM | 12.5 µM | 50 µM | 5900 nM | 380 nM | 30 nM |
| CCC[C@H](C(=O)O)[C@H](Cc1ccc(N2CCN(C)CC2)cc1)c1nn[nH]n1 [Example 231, (2S)-2-[(1S)-2-[4-(4-methylpiperazin-1-yl)phenyl]-1-(2H-tetrazol-5-yl)ethyl]pentanoic acid] | – | – | – | – | – | – | 18.8 µM | 50 µM | 18.8 µM | 450 nM | 160 nM | 69 nM |
| CC(C)C[C@H](C(=O)O)[C@H](Cc1ccc(OCCN)nc1)c1nnn[nH]1 [Example 135, (S)-2-((S)-2-(6-(2-aminoethoxy)pyridin-3-yl)-1-(1H-tetrazol-5-yl)ethyl)-4-methylpentanoic acid] | – | – | – | – | – | – | 6.2 µM | 25 µM | 25 µM | 1600 nM | 490 nM | 6.1 nM |
| CCC[C@H](C(=O)O)[C@H](Cc1ccc(NC(C)CN(C)C)cc1)c1nn[nH]n1 (stereo partly drawn) [Example 224, (2S)-2-[(1S)-2-(4-{[2-(dimethylamino)-1-methylethyl]amino}phenyl)-1-(2H-tetrazol-5-yl)ethyl]pentanoic acid] | – | – | – | – | – | – | 25 µM | 50 µM | 18.8 µM | 1100 nM | 1000 nM | 82 nM |
| O=C(O)[C@@H](C1CCCC1)[C@H](Cc1ccc(C2=CCNC2)cn1)c1nnn[nH]1 [Example 66, (2S,3S)-2-cyclopentyl-4-(5-(2,5-dihydro-1H-pyrrol-3-yl)pyridin-2-yl)-3-(1H-tetrazol-5-yl)butanoic acid] | – | – | – | – | – | – | 4.7 µM | 12.5 µM | 75 µM | 6400 nM | 370 nM | 18 nM |
| CCC[C@H](C(=O)O)[C@H](Cc1ccc(C(=O)NCCO)cc1)c1nnn[nH]1 [Example 280, (2S)-2-[(1S)-2-{4-[(2-hydroxyethyl)carbamoyl]phenyl}-1-(1H-tetrazol-5-yl)ethyl]pentanoic acid] | 18.8 µM | 25 µM | 25 µM | 880 nM | 140 nM | 2.7 nM | – | – | – | – | – | – |
| CC(C)C[C@H](C(=O)O)[C@H](Cc1ccc(-c2ccc(CN)cc2)c(F)c1)c1nn[nH]n1 [Example 454, (4′-((2S,3S)-3-carboxy-5-methyl-2-(2H-tetrazol-5-yl)hexyl)-2′-fluoro-[1,1′-biphenyl]-4-yl)methanaminium 2,2,2-trifluoroacetate] | 4.688 µM | 25 µM | 1.563 µM | 24.7 nM | 29.5 nM | 3.52 nM | – | – | – | – | – | – |
| CC(C)C[C@H](C(=O)O)[C@H](Cc1ccc(N2CCC(O)C2)nc1)c1nnn[nH]1 (stereo partly drawn) [Example 313, (2S)-2-[(1S)-2-[6-(3-hydroxypyrrolidin-1-yl)pyridin-3-yl]-1-(1H-tetrazol-5-yl)ethyl]-4-methylpentanoic acid] | 1.6 µM | 12.5 µM | 12.5 µM | 360 nM | 75 nM | 3.8 nM | – | – | – | – | – | – |
| CC(C)C[C@H](C(=O)O)[C@H](Cc1ccc(COCCN2CCNCC2)c(F)c1)c1nn[nH]n1.O=C(O)C(F)(F)F [Example 441, 5-((2S,3S)-3-carboxy-1-(3-fluoro-4-((2-(piperazin-1-yl)ethoxy)methyl)phenyl)-5-methylhexan-2-yl)-4422H-tetrazol-3-ium 2,2,2-trifluoroacetate] | 25 µM | 50 µM | 18.75 µM | 214 nM | 113 nM | 19.7 nM | – | – | – | – | – | – |
| CC(C)C[C@H](C(=O)O)[C@H](Cc1ccc(C(N)=O)cc1)c1nnn[nH]1 [Example 48, (2S)-2-[(1S)-2-(4-carbamoylphenyl)-1-(1H-tetrazol-5-yl)ethyl]-4-methylpentanoic acid] | – | – | – | – | – | – | 6.2 µM | 50 µM | 4.7 µM | 130 nM | 43 nM | 2.2 nM |
| CC(C)(C)[C@H](C(=O)O)[C@H](Cc1ccc(NCCN)nc1)c1nnn[nH]1.O=C(O)C(F)(F)F [Example 427, 2-((5-((2S,3R)-3-carboxy-4,4-dimethyl-2-(1H-tetrazol-5-yl)pentyl)pyridin-2-yl)amino)ethan-1-aminium 2,2,2-trifluoroacetate] | 1.563 µM | 9.375 µM | 3.125 µM | 342 nM | 119 nM | 17.9 nM | – | – | – | – | – | – |
| O=C(O)[C@@H](C1CCCC1)[C@H](Cc1ccc(C2CCNCC2)cc1)c1nnn[nH]1 [Example 80, 4-(4-((2S,3S)-3-carboxy-3-cyclopentyl-2-(1H-tetrazol-5-yl)propyl)phenyl)piperidine] | – | – | – | – | – | – | 6.2 µM | 9.4 µM | 1.6 µM | 73 nM | 17 nM | 2.2 nM |
